Results as given in US20050197350A1, “Novel quinoline, tetrahydroquinazoline, and pyrimidine derivatives and methods of treatment related to the use thereof” (TAISHO PHARMACEUTICAL CO., LTD., priority 2003, published 2005).

Tested on: MCH receptors
Assay: MCH receptor activity class (method not given)
[1] = class by percent of control at 10^−7 M or IC50
[2] = MCH receptor, class by percent of control at 10^-7 M or IC50
[3] = class by percent of control at 10^-7 M or IC50
[4] = class 1-3 by percent of control at 10^-7 M or IC50
[5] = activity class 1-3: percent of control at 10^-7 M or IC50
[6] = activity class per percent of control at 10^-7 M or IC50

## Cc1nc(N[C@H]2CC[C@@H](NC(=O)c3cccc(OC(C)C)c3)CC2)nc(N(C)C)c1C [compound 2862]
[1]
  class: 1 (Class 1: The value of percent of control at 10^−7 M was less than 40% or the value of IC50 was less than 50 nM.)

## CN(C)c1cc(N[C@H]2CC[C@@H](CNC(=O)c3ccc(F)c(Cl)c3F)CC2)nc2ccccc12 [compound 189, 3-chloro-N-[(cis-4-{[4-(dimethylamino)quinolin-2-yl]amino}cyclohexyl)methy]-2,4-difluorobenzamide]
[2]
  class: 3 (Class 3 The value of percent of control at 10^−7 M was more than 60% or the value of IC50 was more than 200 nM.)

## C=C(C)c1cccc(C(C)(C)NC(=O)N[C@H]2CC[C@@H](Nc3cc(N(C)C)c4ccccc4n3)CC2)c1 [compound 2128]
[3]
  class: 3 (Class 3 The value of percent of control at 10^−7 M was more than 60% or the value of IC50 was more than 200 nM.)

## Cc1ccc(C(=O)N[C@H]2CC[C@@H](Nc3nc4c(c(N(C)C)n3)CCCC4)CC2)cc1[N+](=O)[O-] [compound 479]
[4]
  class: 1 (Class 1: The value of percent of control at 10^−7 M was less than 40% or the value of IC50 was less than 50 nM.)

## CN(C)c1nc(N[C@H]2CC[C@@H](NC(=S)Nc3ccc(/N=N/c4ccccc4)cc3)CC2)nc2c1CCCC2 [compound 2080]
[2]
  class: 3 (Class 3 The value of percent of control at 10^−7 M was more than 60% or the value of IC50 was more than 200 nM.)

## COc1cccc(C(=O)N[C@H]2CC[C@@H](Nc3nc(C)c(C)c(N(C)C)n3)CC2)c1 [compound 2824, N-(cis-4-{[4-(dimethylamino)-5,6-dimethylpyrimidin-2-yl]amino}cyclohexyl)-3-methoxybenzamide]
[1]
  class: 1 (Class 1: The value of percent of control at 10^−7 M was less than 40% or the value of IC50 was less than 50 nM.)

## C=CCOC(=O)N[C@H]1CC[C@@H](Nc2nc3c(c(N(C)C)n2)CCCC3)CC1 [compound 1590]
[5]
  class: 3 (Class 3 The value of percent of control at 10^−7 M was more than 60% or the value of IC50 was more than 200 nM.)

## COc1cc([N+](=O)[O-])ccc1NC(=S)N[C@H]1CC[C@@H](Nc2nc3c(c(N(C)C)n2)CCCC3)CC1 [compound 1749]
[3]
  class: 3 (Class 3 The value of percent of control at 10^−7 M was more than 60% or the value of IC50 was more than 200 nM.)

## CN(C)c1nc(N[C@H]2CC[C@@H](NC(=O)Cc3ccccc3Br)CC2)nc2c1CCCC2 [compound 516]
[4]
  class: 3 (Class 3 The value of percent of control at 10^−7 M was more than 60% or the value of IC50 was more than 200 nM.)

## CN(C)c1nc(N[C@H]2CC[C@@H](NC(=O)Oc3cccc(C(F)(F)F)c3)CC2)nc2c1CCCC2 [compound 1582]
[5]
  class: 3 (Class 3 The value of percent of control at 10^−7 M was more than 60% or the value of IC50 was more than 200 nM.)

## CN(C)c1nc(N[C@H]2CC[C@@H](NC(=O)C(CC(=O)c3ccc(Br)cc3)c3c[nH]c4ccccc34)CC2)nc2c1CCCC2 (relative stereo) [compound 992]
[6]
  class: 3 (Class 3 The value of percent of control at 10^−7 M was more than 60% or the value of IC50 was more than 200 nM.)

## Cc1cc([N+](=O)[O-])ccc1NC(=O)N[C@H]1CC[C@@H](Nc2cc(N(C)C)c3ccccc3n2)CC1 [compound 2144]
[3]
  class: 3 (Class 3 The value of percent of control at 10^−7 M was more than 60% or the value of IC50 was more than 200 nM.)

## CN(C)c1nc(N[C@H]2CC[C@@H](NC(=O)Cc3ccc(F)cc3Cl)CC2)nc2c1CCCC2 [compound 951, 2-(2-chloro-4-fluorophenyl)-N-(cis-4-{[4-(dimethylamino)-5,6,7,8-tetrahydroquinazolin-2-yl]amino}cyclohexyl)acetamide]
[3]
  class: 1 (Class 1: The value of percent of control at 10^−7 M was less than 40% or the value of IC50 was less than 50 nM.)

## CN(C)c1cc(N[C@H]2CC[C@@H](NC(=O)OCc3ccccc3)CC2)nc2ccccc12 [compound 55]
[2]
  class: 3 (Class 3 The value of percent of control at 10^−7 M was more than 60% or the value of IC50 was more than 200 nM.)

## Cc1noc(-c2ccccc2)c1NC(=O)NC[C@H]1CC[C@@H](Nc2nc3c(c(N(C)C)n2)CCCC3)CC1 [compound 2483]
[3]
  class: 3 (Class 3 The value of percent of control at 10^−7 M was more than 60% or the value of IC50 was more than 200 nM.)

## Cc1ccccc1CNC[C@H]1CC[C@@H](Nc2nccc(N(C)C)n2)CC1 [compound 1306]
[3]
  class: 3 (Class 3 The value of percent of control at 10^−7 M was more than 60% or the value of IC50 was more than 200 nM.)

## Cc1nc(N[C@H]2CC[C@@H](NCc3ccc(F)c(F)c3)CC2)nc(N(C)C)c1C [compound 2866]
[1]
  class: 2 (Class 2: The value of percent of control at 10^−7 M was from 40% to 60% or the value of IC′50 was from 50 nM to 200 nM.)

## CN(C)c1cc(N[C@H]2CC[C@@H](NC(=O)Nc3ccccc3C(F)(F)F)CC2)nc2ccccc12 [compound 2096]
[3]
  class: 3 (Class 3 The value of percent of control at 10^−7 M was more than 60% or the value of IC50 was more than 200 nM.)

## CN(C)c1ccnc(N[C@H]2CC[C@@H](NCc3c[nH]c4ccc(Br)cc34)CC2)n1 [compound 1213]
[3]
  class: 2 (Class 2: The value of percent of control at 10^−7 M was from 40% to 60% or the value of IC′50 was from 50 nM to 200 nM.)

## CN(C)c1nc(N[C@H]2CC[C@@H](NC(=O)c3cccc(C#N)c3)CC2)nc2c1CCCC2 [compound 465]
[4]
  class: 1 (Class 1: The value of percent of control at 10^−7 M was less than 40% or the value of IC50 was less than 50 nM.)

## CN(C)c1nc(N[C@H]2CC[C@@H](NC(=O)Cc3sc(-c4ccccc4)nc3-c3ccc(Cl)cc3)CC2)nc2c1CCCC2 [compound 1037]
[6]
  class: 3 (Class 3 The value of percent of control at 10^−7 M was more than 60% or the value of IC50 was more than 200 nM.)

## COc1cccc(N(C)CC(=O)N[C@H]2CC[C@@H](Nc3ncc(C)c(N(C)C)n3)CC2)c1 [compound 2947]
[1]
  class: 1 (Class 1: The value of percent of control at 10^−7 M was less than 40% or the value of IC50 was less than 50 nM.)

## Cc1cc(C(=O)NC[C@H]2CC[C@@H](Nc3nc4c(c(N(C)C)n3)CCCC4)CC2)ccc1Br [compound 619]
[3]
  class: 3 (Class 3 The value of percent of control at 10^−7 M was more than 60% or the value of IC50 was more than 200 nM.)

## COc1cc(OC)cc(C(=O)N[C@H]2CC[C@@H](CNc3ncc(C)c(N(C)C)n3)CC2)c1 [compound 2716, N-[cis-4-({[4-(dimethylamino)-5-methylpyrimidin-2-yl]amino}methyl)cyclohexyl]-3,5-dimethoxybenzamide]
[1]
  class: 2 (Class 2: The value of percent of control at 10^−7 M was from 40% to 60% or the value of IC′50 was from 50 nM to 200 nM.)

## Cc1cnc(N[C@H]2CC[C@@H](NC(=O)c3ccc(C#N)cc3)CC2)nc1N(C)C [compound 2909, 4-cyano-N-(cis-4-{[4-(dimethylamino)-5-methylpyrimidin-2-yl]amino}cyclohexyl)benzamide]
[1]
  class: 1 (Class 1: The value of percent of control at 10^−7 M was less than 40% or the value of IC50 was less than 50 nM.)

## CN(C)c1ccnc(N[C@H]2CC[C@@H](NC(=O)COc3cccc(Cl)c3)CC2)n1 [compound 351, 2-(3-chlorophenoxy)-N-(cis-4-{[4-(dimethylamino)pyrimidin-2-yl]amino}cyclohexyl)acetamide]
[3]
  class: 1 (Class 1: The value of percent of control at 10^−7 M was less than 40% or the value of IC50 was less than 50 nM.)

## CN(C)c1nc(N[C@H]2CC[C@@H](NC(=O)Nc3cccs3)CC2)nc2c1CCCC2 [compound 1916]
[2]
  class: 3 (Class 3 The value of percent of control at 10^−7 M was more than 60% or the value of IC50 was more than 200 nM.)

## Cc1cnc(N[C@H]2CC[C@@H](NC(=O)c3cccnc3Oc3cccc(Br)c3)CC2)nc1N(C)C [compound 2894, 2-(3-bromophenoxy)-N-(cis-4-{[4-(dimethylamino)-5-methylpyrimidin-2-yl]amino}cyclohexyl)nicotinamide]
[1]
  class: 1 (Class 1: The value of percent of control at 10^−7 M was less than 40% or the value of IC50 was less than 50 nM.)

## Cc1cc(N(C)C)nc(NC2CCC(NC(=O)c3cccc([N+](=O)[O-])c3)CC2)n1 (stereo not drawn) [compound 2992, N-(4-{[4-(dimethylamino)-6-methylpyrimidin-2-yl]amino}cyclohexyl)-3-nitrobenzamide]
[1]
  class: 1 (Class 1: The value of percent of control at 10^−7 M was less than 40% or the value of IC50 was less than 50 nM.)

## CN(C)c1ccnc(N[C@H]2CC[C@@H](NC(=O)c3ccccc3COc3ccccc3)CC2)n1 [compound 899]
[3]
  class: 3 (Class 3 The value of percent of control at 10^−7 M was more than 60% or the value of IC50 was more than 200 nM.)

## Cc1ccc(Cl)c(C(=O)NC[C@H]2CC[C@@H](Nc3cc(N(C)C)c4ccccc4n3)CC2)c1F [compound 235]
[3]
  class: 3 (Class 3 The value of percent of control at 10^−7 M was more than 60% or the value of IC50 was more than 200 nM.)

## Cc1cnc(N[C@H]2CC[C@@H](NC(=O)c3cccnc3Oc3ccc(I)cc3)CC2)nc1N(C)C [compound 2889, N-(cis-4-{[4-(dimethylamino)-5-methylpyrimidin-2-yl]amino}cyclohexyl)-2-(4-iodophenoxy)nicotinamide]
[1]
  class: 1 (Class 1: The value of percent of control at 10^−7 M was less than 40% or the value of IC50 was less than 50 nM.)

## Cc1onc(-c2c(Cl)cccc2Cl)c1C(=O)N[C@H]1CC[C@@H](Nc2cc(N(C)C)c3ccccc3n2)CC1 [compound 134]
[2]
  class: 1 (Class 1: The value of percent of control at 10^−7 M was less than 40% or the value of IC50 was less than 50 nM.)

## CN(C)c1nc(N[C@H]2CC[C@@H](CNC(=O)/C=C/c3cccc([N+](=O)[O-])c3)CC2)nc2c1CCCC2 [compound 1070]
[6]
  class: 2 (Class 2: The value of percent of control at 10^−7 M was from 40% to 60% or the value of IC′50 was from 50 nM to 200 nM.)

## CC(NC(=O)N[C@H]1CC[C@@H](Nc2nc3c(c(N(C)C)n2)CCCC3)CC1)c1ccccc1 (relative stereo) [compound 1706]
[5]
  class: 3 (Class 3 The value of percent of control at 10^−7 M was more than 60% or the value of IC50 was more than 200 nM.)

## CN(C)c1cc(N[C@H]2CC[C@@H](CNC(=O)c3ccc(Cl)cc3)CC2)nc2ccccc12 [compound 152]
[2]
  class: 3 (Class 3 The value of percent of control at 10^−7 M was more than 60% or the value of IC50 was more than 200 nM.)
